In US20090297576A1, “Local Delivery of PAR-1 Antagonists to Treat Vascular Complications” (MEDTRONIC VASCULAR, INC., priority 2008, published 2009):

Test: solubility of SCH-530348 in the coating solvent ethanol
Format: physicochemical
Conditions: stent coating solution
Method: In the following Example, ethanol is chosen as the solvent of choice. The PAR-1 antagonist is SCH-530348. […] Persons having ordinary skill in the art of polymer chemistry can easily pair the appropriate solvent system to the polymer-drug combination and achieve optimum results with no more than routine experimentation.
250 mg of SCH-530348 is carefully weighed and added to a small neck glass bottle containing 2.8 ml of ethanol. The SCH-530348-ethanol suspension is then thoroughly mixed until a clear solution is achieved.

CCOC(=O)N[C@@H]1CC[C@@H]2[C@@H](C1)C[C@H]1C(=O)O[C@H](C)[C@H]1[C@H]2/C=C/c1ccc(-c2cccc(F)c2)cn1 [SCH-530348]
solubility in ethanol: freely soluble
